The target in the experiment is AMPK. As to the kind of experiment: AMPK activation, enzyme-linked immunosorbent assay. It counts as biochemical. The following applies: Table 8, compounds of Table 1. The procedure:
Compounds of Table 1 were assayed for their ability to activate AMPK using an enzyme-linked immunosorbent assay.
Compounds of Table 2 were assayed for their ability to activate AMPK using an enzyme-linked immunosorbent assay.
Compounds of Table 3 were assayed for their ability to activate AMPK using an enzyme-linked immunosorbent assay.
Compounds of Table 4 were assayed for their ability to activate AMPK using an enzyme-linked immunosorbent assay.
Compounds of Table 5 were assayed for their ability to activate AMPK using an enzyme-linked immunosorbent assay.
Compounds of Table 6 were assayed for their ability to activate AMPK using an enzyme-linked immunosorbent assay.
Compounds of Table 7 were assayed for their ability to activate AMPK using an enzyme-linked immunosorbent assay.
For `O=C(N[C@H]1CCN(Cc2ccc(F)cc2)C1)c1ccc(OC2CCN(c3ccc(C(F)(F)F)cc3)CC2)cn1` [Compound 1-32, (S)-N-(1-(4-fluorobenzyl)pyrrolidin-3-yl)-5-(1-(4-(trifluoromethyl)phenyl)piperidin-4-yloxy) picolinamide], the EC50 (as a rule, the midpoint of the concentration-response curve) lay within 100 to 500 nM.
For the compound `N#Cc1ccc(CN2CC[C@@H](NC(=O)c3ccc(OC4CCN(c5ccc(C(F)(F)F)cc5)CC4)cn3)C2)cc1` [Compound 1-33, (R)-N-(1-(4-cyanobenzyl)pyrrolidin-3-yl)-5-(1-(4-(trifluoromethyl)phenyl)piperidin-4-yloxy) picolinamide], the EC50 lay within 500 to 1000 nM.
For the compound `O=C(N[C@@H]1CCN(Cc2ccc(F)cc2)C1)c1ccc(OC2CCN(c3ccc(C(F)(F)F)cc3)CC2)cn1` [Compound 1-34, (R)-N-(1-(4-fluorobenzyl)pyrrolidin-3-yl)-5-(1-(4-(trifluoromethyl)phenyl)piperidin-4-yloxy) picolinamide], the EC50 lay in the range of 500 to 1000 nM.
Consider `N#Cc1ccc(CN2CCC(NC(=O)c3ccc(OC4CCN(c5ccc(C(F)(F)F)cc5)CC4)nc3)CC2)cc1` [Compound 1-35, N-(1-(4-cyanobenzyl)piperidin-4-yl)-6-(1-(4-(trifluoromethyl)phenyl)piperidin-4-yloxy) nicotinamide], for which the EC50 was 100 to 500 nM.
As for `O=C(NC1CCN(CCc2ccccc2)CC1)c1ccc(OC2CCN(c3ccc(C(F)(F)F)cc3)CC2)cn1` [Compound 1-36, N-(1-phenethylpiperidin-4-yl)-5-(1-(4-(trifluoromethyl)phenyl)piperidin-4-yloxy) picolinamide], the figure is 500 to 1000 nM; as for `O=C(NC1CCN(Cc2ccc3ccccc3c2)CC1)c1ccc(OC2CCN(c3ccc(C(F)(F)F)cc3)CC2)cn1` [Compound 1-37, N-(1-(naphthalen-2-ylmethyl)piperidin-4-yl)-5-(1-(4-(trifluoromethyl)phenyl)piperidin-4-yloxy)picolinamide], 500 to 1000 nM; as for `O=C(NC1CCN(Cc2ccccc2)CC1)c1ccc(OC2CCN(c3ccc(C(F)(F)F)cc3)CC2)cn1` [Compound 1-38, N-(1-benzylpiperidin-4-yl)-5-(1-(4-(trifluoromethyl)phenyl)piperidin-4-yloxy)picolinamide], 1000 to 5000 nM.
The figure for `CN(C)c1ccc(CN2CCC(NC(=O)c3ccc(OC4CCN(c5ccc(C(F)(F)F)cc5)CC4)cn3)CC2)cc1` [Compound 1-39, N-(1-(4-(dimethylamino)benzyl)piperidin-4-yl)-5-(1-(4-(trifluoromethyl)phenyl)piperidin-4-yloxy)picolinamide] is 100 to 500 nM; for `O=C(NC1CCN(Cc2ccc(N3CCOCC3)cc2)CC1)c1ccc(OC2CCN(c3ccc(C(F)(F)F)cc3)CC2)cn1` [Compound 1-40, N-(1-(4-morpholinobenzyl)piperidin-4-yl)-5-(1-(4-(trifluoromethyl)phenyl)piperidin-4-yloxy)picolinamide] it is under 100 nM.
`N#Cc1ccc(CN2CC(NC(=O)c3ccc(OC4CCN(c5ccc(C(F)(F)F)cc5)CC4)cn3)C2)cc1` [Compound 1-41, N-(1-(4-cyanobenzyl)azetidin-3-yl)-5-(1-(4-(trifluoromethyl)phenyl)piperidin-4-yloxy)picolinamide] came in with an EC50 of 100 to 500 nM.
For the compound `O=C(NC1CN(Cc2ccncc2)C1)c1ccc(OC2CCN(c3ccc(C(F)(F)F)cc3)CC2)cn1` [Compound 1-42, N-(1-(pyridin-4-ylmethyl)azetidin-3-yl)-5-(1-(4-(trifluoromethyl)phenyl)piperidin-4-yloxy)picolinamide], the EC50 was in the range of 1000 to 5000 nM.
As for `O=C(NC1CCN(Cc2ccncc2)CC1)c1cccc(OC2CCN(c3ccc(C(F)(F)F)cc3)CC2)n1` [Compound 1-43, N-(1-(pyridin-4-ylmethyl)piperidin-4-yl)-6-(1-(4-(trifluoromethyl)phenyl)piperidin-4-yloxy)picolinamide], the figure is 1000 to 5000 nM; as for `O=C(NC1CCN(Cc2cncnc2)CC1)c1ccc(OC2CCN(c3ccc(C(F)(F)F)cc3)CC2)cn1` [Compound 1-44, N-(1-(pyrimidin-5-ylmethyl)piperidin-4-yl)-5-(1-(4-(trifluoromethyl)phenyl)piperidin-4-yloxy)picolinamide], 100 to 500 nM; as for `COC(=O)c1ccc(CN2CCC(NC(=O)c3ccc(OC4CCN(c5ccc(C(F)(F)F)cc5)CC4)nc3)CC2)cc1` [Compound 1-45, methyl 4-((4-(6-(1-(4-(trifluoromethyl)phenyl)piperidin-4-yloxy)nicotinamido)piperidin-1-yl)methyl)benzoate], over 10000 nM.
For `O=C(O)c1ccc(CN2CCC(NC(=O)c3ccc(OC4CCN(c5ccc(C(F)(F)F)cc5)CC4)nc3)CC2)cc1` [Compound 1-46, 4-((4-(6-(1-(4-(trifluoromethyl)phenyl)piperidin-4-yloxy)nicotinamido)piperidin-1-yl)methyl) benzoic acid], the EC50 lay within 1000 to 5000 nM.
The figure for `O=C(NC1CCN(Cc2cn(C(c3ccccc3)(c3ccccc3)c3ccccc3)cn2)CC1)c1ccc(OC2CCN(c3ccc(C(F)(F)F)cc3)CC2)cn1` [Compound 1-47, 5-(1-(4-(trifluoromethyl)phenyl)piperidin-4-yloxy)-N-(1-((1-trityl-1H-imidazol-4-yl)methyl)piperidin-4-yl)picolinamide] is 1000 to 5000 nM.
For `O=C(NC1CCN(Cc2c[nH]cn2)CC1)c1ccc(OC2CCN(c3ccc(C(F)(F)F)cc3)CC2)cn1` [Compound 1-48, N-(1-((1H-imidazol-4-yl)methyl)piperidin-4-yl)-5-(1-(4-(trifluoromethyl)phenyl)piperidin-4-yloxy)picolinamide], the EC50 is 1000 to 5000 nM.
As for `CC(C)(C)OC(=O)NCCCNC(=O)c1ccc(OC2CCN(c3ccc(C(F)(F)F)cc3)CC2)cn1` [Compound 1-49, tert-butyl 3-(5-(1-(4-(trifluoromethyl)phenyl)piperidin-4-yloxy)picolinamido) propylcarbamate], the figure is under 100 nM; as for `O=C(NCCCNCc1ccncc1)c1ccc(OC2CCN(c3ccc(C(F)(F)F)cc3)CC2)cn1` [Compound 1-50, N-(3-(pyridin-4-ylmethylamino)propyl)-5-(1-(4-(trifluoromethyl)phenyl)piperidin-4-yloxy)picolinamide], 1000 to 5000 nM; as for `O=S(=O)(NC1CCN(Cc2ccncc2)CC1)c1ccc(OC2CCN(c3ccc(C(F)(F)F)cc3)CC2)nc1` [Compound 1-51, N-(1-(pyridin-4-ylmethyl)piperidin-4-yl)-6-(1-(4-(trifluoromethyl)phenyl)piperidin-4-yloxy)pyridine-3-sulfonamide], 100 to 500 nM.
`N#Cc1ccc(N2CCC(Oc3ccc(S(=O)(=O)NC4CCN(Cc5ccncc5)CC4)cn3)CC2)cc1` [Compound 1-52, N-(1-(pyridin-4-ylmethyl)piperidin-4-yl)-6-(1-(4-cyanophenyl)piperidin-4-yloxy)pyridine-3-sulfonamide] registered an EC50 of 100 to 500 nM.
For the compound `N#Cc1ccc(CN2CCC(Oc3ccc(S(=O)(=O)NC4CCN(Cc5ccncc5)CC4)cn3)CC2)cc1` [Compound 1-53, 6-(1-(4-cyanobenzyl)piperidin-4-yloxy)-N-(1-(pyridin-4-ylmethyl)piperidin-4-yl)pyridine-3-sulfonamide], the EC50 was in the range of 100 to 500 nM.
The figure for `CC(C)(C)OC(=O)N1CCC(NS(=O)(=O)c2ccc(OC3CCN(c4ccc(C(F)(F)F)cc4)CC3)nc2)CC1` [Compound 1-54, tert-butyl 4-(6-(1-(4-(trifluoromethyl)phenyl)piperidin-4-yloxy)pyridine-3-sulfonamido) piperidine-1-carboxylate] is 1000 to 5000 nM; for `O=S(=O)(NC1CCNCC1)c1ccc(OC2CCN(c3ccc(C(F)(F)F)cc3)CC2)nc1` [Compound 1-55, N-(piperidin-4-yl)-6-(1-(4-(trifluoromethyl)phenyl)piperidin-4-yloxy)pyridine-3-sulfonamide] it is 1000 to 5000 nM.
As for `N#Cc1ccc(CN2CCC(NS(=O)(=O)c3ccc(OC4CCN(c5ccc(C(F)(F)F)cc5)CC4)nc3)CC2)cc1` [Compound 1-56, N-(1-(4-cyanobenzyl)piperidin-4-yl)-6-(1-(4-(trifluoromethyl)phenyl)piperidin-4-yloxy)pyridine-3-sulfonamide], the figure is 5000 to 10000 nM.
`N#Cc1cccc(CN2CCC(NS(=O)(=O)c3ccc(OC4CCN(c5ccc(C(F)(F)F)cc5)CC4)nc3)CC2)c1` [Compound 1-57, N-(1-(3-cyanobenzyl)piperidin-4-yl)-6-(1-(4-(trifluoromethyl)phenyl)piperidin-4-yloxy)pyridine-3-sulfonamide] had an EC50 of 500 to 1000 nM.
On to `O=S(=O)(NC1CCN(Cc2ccc(C(F)(F)F)cc2)CC1)c1ccc(OC2CCN(c3ccc(C(F)(F)F)cc3)CC2)nc1` [Compound 1-58, N-(1-(4-(trifluoromethyl)benzyl)piperidin-4-yl)-6-(1-(4-(trifluoromethyl)phenyl)piperidin-4-yloxy)pyridine-3-sulfonamide], for which the EC50 was under 100 nM.
In the case of `O=S(=O)(NC1CCN(Cc2cccc(C(F)(F)F)c2)CC1)c1ccc(OC2CCN(c3ccc(C(F)(F)F)cc3)CC2)nc1` [Compound 1-59, N-(1-(3-(trifluoromethyl)benzyl)piperidin-4-yl)-6-(1-(4-(trifluoromethyl)phenyl)piperidin-4-yloxy)pyridine-3-sulfonamide], the EC50 lay within 100 to 500 nM.
The figure for `O=C(c1ccc(F)cc1)N1CCC(NS(=O)(=O)c2ccc(OC3CCN(c4ccc(C(F)(F)F)cc4)CC3)nc2)CC1` [Compound 1-60, N-(1-(4-fluorobenzoyl)piperidin-4-yl)-6-(1-(4-(trifluoromethyl)phenyl)piperidin-4-yloxy)pyridine-3-sulfonamide] is over 10000 nM.
The figure for `Cc1c(C(=O)NC2CCN(C(=O)OC(C)(C)C)CC2)oc2cc(OC3CCN(c4ccc(C(F)(F)F)cc4)CC3)ccc12` [Compound 1-61, tert-butyl 4-(3-methyl-6-(1-(4-(trifluoromethyl)phenyl)piperidin-4-yloxy)benzofuran-2-carboxamido) piperidine-1-carboxylate] is 100 to 500 nM.

The values are drawn from patent US9409884B2 (Rigel Pharmaceuticals, Inc., priority 2012, dated 2016).
